Some results are limits rather than exact numbers.

This passage reports EC50, IC50 and Ratio IC50 results from ChEMBL document CHEMBL6109051, “Structure guided modification of 2-chloro-5-(ethyl-phenyl-sulfamoyl)-N-[2-(2-oxo-pyrrolidin-1-yl)-phenyl]-benzamide to afford selective inhibitors of Cryptosporidium parvum N-myristoyltransferase” (Bioorg Med Chem Lett, 2025).

One assay relates to Cryptosporidium parvum. Description: Antiparasitic activity against Cryptosporidium parvum assessed as inhibition of parasitic growth. The assay is classed as functional, organism-based.
The nature of assay [1]: Inhibition of Cryptosporidium parvum NMT.
Assay [2] deals with T1, Glycylpeptide N-tetradecanoyltransferase 1 (Homo sapiens, UniProt P30419).
T1 sequence (P30419 whole entry): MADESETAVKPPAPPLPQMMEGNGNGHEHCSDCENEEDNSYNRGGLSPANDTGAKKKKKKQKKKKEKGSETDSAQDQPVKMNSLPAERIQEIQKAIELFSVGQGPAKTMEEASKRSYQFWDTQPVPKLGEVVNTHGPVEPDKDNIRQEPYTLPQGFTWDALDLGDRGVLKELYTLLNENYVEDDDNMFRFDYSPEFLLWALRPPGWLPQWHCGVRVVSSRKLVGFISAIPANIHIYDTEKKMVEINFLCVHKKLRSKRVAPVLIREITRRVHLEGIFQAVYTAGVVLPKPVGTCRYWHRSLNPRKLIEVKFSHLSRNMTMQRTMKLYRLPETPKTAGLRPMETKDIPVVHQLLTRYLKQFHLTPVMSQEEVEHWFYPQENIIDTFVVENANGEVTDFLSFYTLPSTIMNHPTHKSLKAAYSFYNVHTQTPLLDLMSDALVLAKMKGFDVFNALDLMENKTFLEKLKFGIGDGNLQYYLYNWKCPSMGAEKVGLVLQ
Description: Inhibition of human NMT1.

Assay [3] is described as follows: Selectivity index, ratio of IC50 for human NMT1 to IC50 for Cryptosporidium parvum NMT.

On to `CCN(c1ccccc1)S(=O)(=O)c1ccc(Cl)c(C(=O)Nc2ccccc2N2CCN(C)C2=O)c1`, for which the EC50 (commonly the concentration that produces a half-maximal response) in the assay on Cryptosporidium parvum amounted to 6.9 µM. The IC50 (commonly the point on the concentration scale where inhibition reaches its midpoint) amounted to 2.5 µM in assay [1] and 11.4 µM in assay [2]. Also, the Ratio IC50 in assay [3] was found to be 4.6.

Turning to `CCN(c1ccccc1)S(=O)(=O)c1ccc(Cl)c(C(=O)Nc2ccccc2N2C(=O)CC(C)(C)C2=O)c1`, the EC50 with Cryptosporidium parvum is greater than 20 µM. Moreover, in assay [1], the IC50 was greater than 125 µM.

Turning to `CCN(c1ccccc1)S(=O)(=O)c1ccc(Cl)c(C(=O)Nc2ccccc2N2CCCC2=O)c1`, the 50% effective concentration (EC50) in the assay with Cryptosporidium parvum is 3.5 µM. In assay [1], this compound came in with an IC50 of 3.5 µM. The Ratio IC50 in assay [3] stood at 1.4.

`CCN(c1ccccc1)S(=O)(=O)c1ccc(Cl)c(C(=O)Nc2ccccc2N2CC(C)(C)CC2=O)c1`: in the assay on Cryptosporidium parvum, the EC50 is greater than 20 µM. In assay [1], this compound showed an IC50 greater than 125 µM.

As for `CCN(c1ccccc1)S(=O)(=O)c1ccc(Cl)c(C(=O)Nc2ccccc2N2CCN(CC3CC3)C2=O)c1`, the EC50 in the assay with Cryptosporidium parvum is greater than 20 µM. Besides, the IC50 in assay [1] is 52.8 µM; in assay [2], greater than 125 µM. For the same compound, the Ratio IC50 in assay [3] is greater than 2.

On to `CCN(c1ccccc1)S(=O)(=O)c1ccc(Cl)c(C(=O)Nc2ccccc2N2CCC(C)(C)C2=O)c1`, for which the EC50 in the assay with Cryptosporidium parvum is greater than 20 µM. Also, the IC50 in assay [1] is 13.8 µM; in assay [2], greater than 125 µM. The Ratio IC50 in assay [3] is greater than 9.

`CCN1CCN(c2ccccc2NC(=O)c2cc(S(=O)(=O)N(CC)c3ccccc3)ccc2Cl)C1=O`: the EC50 in the assay with Cryptosporidium parvum worked out at 16.4 µM. Further, the IC50 in assay [1] was 2.8 µM; in assay [2] it was greater than 125 µM. Further, the Ratio IC50 in assay [3] is greater than 44.

For `CCN(c1ccccc1)S(=O)(=O)c1ccc(Cl)c(C(=O)Nc2ccccc2N2CC(CC)(CC)CC2=O)c1`, the EC50 in the assay with Cryptosporidium parvum was greater than 20 µM. Also, in assay [1], the IC50 is greater than 125 µM.

`CCN(c1ccccc1)S(=O)(=O)c1ccc(Cl)c(C(=O)Nc2ccccc2N2CCN(C(C)C)C2=O)c1`: the EC50 in the assay with Cryptosporidium parvum was greater than 20 µM. Also, the IC50 in assay [1] was greater than 125 µM.
